The values below come from US5589496A, “Fused benzeneoxyacetic acid derivatives which have PGI2 receptor agonist activity” (Ono Pharmaceutical Co., Ltd., priority 1991, dated 1996).

Test [1] has as its system human blood platelet aggregation. Description: Inhibitory effect on human blood platelet aggregation (ADP-induced, platelet-rich plasma). Format: cell-based. Conditions: human PRP (5×10^5 platelets/mm^3), test compound 1 min prior to ADP (4 μm). As for the experimental part:
ii) Inhibitory effect on human blood platelet aggregation
Platelet-rich plasma (PRP) was prepared from human blood (5×10^5 platelets/mm^3), and a test compound was added to PRP 1 min prior to the addition of ADP (4 μm). The aggregation was monitored using a platelet aggregometer (NBS HEMA TRACER 601, Niko Bioscience, Japan).

The next test concerns the target T1, PGI2 receptor (Homo sapiens, UniProt P43119).
T1 construct: human blood platelet membrane fraction (0.3 mg protein) was added; from tissue; host or cells: human blood platelets (membrane fraction)
Description: Inhibitory activity on binding of ^3 H-iloprost to PGI2 receptor on human blood platelet membrane fraction. Conditions: 10 nM [^3H]-iloprost, human blood platelet membrane fraction (0.3 mg protein), 24° C., 30 min, pH 7.4. As for the experimental part: i) Inhibitory activity on binding of ^3 H-iloprost to PGI2 receptor on human blood platelet membrane fraction Method 50 mM Tris-HCl buffer (pH 7.4) containing 15 mM MgCl2, 5 mM EDTA and 10 nM [^3 H]-iloprost were used as reaction medium. To 0.2 ml of the reaction medium, human blood platelet membrane fraction (0.3 mg protein) was added with or without a test compound. The mixture was incubated at 24° C. for 30 min. After incubation, 4 ml of ice-cold 10 mM Tris-HCl buffer (pH 7.4) was added to the reaction mixture, and filtered through Whatman GF/B glass fiber filter, and washed 4 times with 4 ml of ice-cold 10 mM Tris-HCl buffer (pH 7.4) to separate bound and free [^3 H]-iloprost. After washing, the filter was dried and radioactivity was counted. Non-specific binding was obtained by performing parallel binding experiments in the presence of 10 μM non-labelled iloprost. Specific binding was calculated by subtracting the non-specific binding from the total binding. The inhibitory effect of test compound was calculated from the following equation. The percentage of inhibition (%)=100-(B1 /B0 ×100) B1 : specific [^3 H]-iloprost binding in presence of test compound B0 : specific [^3 H]-iloprost binding in absence of test compound

T1 sequence (P43119 whole entry): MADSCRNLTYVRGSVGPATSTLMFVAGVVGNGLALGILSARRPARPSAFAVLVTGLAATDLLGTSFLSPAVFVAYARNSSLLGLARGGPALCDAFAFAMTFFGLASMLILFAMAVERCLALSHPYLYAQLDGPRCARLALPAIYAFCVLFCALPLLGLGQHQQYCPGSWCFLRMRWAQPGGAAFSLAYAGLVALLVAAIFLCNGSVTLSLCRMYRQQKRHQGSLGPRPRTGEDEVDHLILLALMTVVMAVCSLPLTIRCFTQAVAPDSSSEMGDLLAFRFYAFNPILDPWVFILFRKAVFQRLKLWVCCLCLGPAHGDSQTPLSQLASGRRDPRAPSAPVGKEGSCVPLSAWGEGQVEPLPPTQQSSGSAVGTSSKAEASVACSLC

As for `O=C(O)COc1cccc2c1CCC(Cn1cc(C(c3ccccc3)c3ccccc3)cn1)C2` (centres unmarked) [Example 2, [2-(4-Diphenylmethylpyrazol-1-yl)methyl-1,2,3,4-tetrahydronaphthalen-5-yloxy]acetic acid], the IC50 in test [1] was 45 nM; on PGI2 receptor, 43 nM.

With `O=C(O)COc1cccc2c1CCC(Cn1cnc(C(c3ccccc3)c3ccccc3)c1)C2` (centres unmarked) [2(g), [2-(4-Diphenylmethylimidazol-1-yl)methyl-1,2,3,4-tetrahydronaphthalen-5-yloxy] acetic acid], the IC50 in test [1] turned out to be 300 nM; on PGI2 receptor it was 350 nM.

Regarding `O=C(O)COc1cccc2c1CCCC2CCn1cnc(-c2ccccc2)c1-c1ccccc1` (centres unmarked) [Example 6, [1-[2-(4,5-Diphenylimidazol-1-yl)ethyl]-1,2,3,4-tetrahydronaphthalen-5-yloxy] acetic acid], the IC50 on PGI2 receptor is 5000 nM.

Take `O=C(O)COc1cccc2c1CCCC2CCc1nc(C(c2ccccc2)c2ccccc2)no1` (centres unmarked) [Example 8, [1-[2-(3-Diphenylmethyl-1,2,4-oxadiazol-5-yl)ethyl]-1,2,3,4-tetrahydronaphthalen-5-yloxy] acetic acid]: the IC50 on PGI2 receptor turned out to be 2000 nM.

For the compound `O=C(O)COc1cccc2c1CCCC2CCn1c(-c2ccccc2)c(-c2ccccc2)n(-c2ccccc2)c1=O` (centres unmarked) [6(b), [1-(2-(1,4,5-Triphenyl-2-oxo-2,3-dihydroimidazol-3-yl)ethyl)-1,2,3,4-tetrahydronaphthalen-5-yloxy] acetic acid], the IC50 turned out to be 16000 nM in test [1] and 4000 nM on PGI2 receptor.

Regarding `O=C(O)COc1cccc2c1CCC(Cc1coc(C(c3ccccc3)c3ccccc3)n1)C2` (centres unmarked) [Example 12, [2-(2-Diphenylmethyloxazol-4-yl)methyl-1,2,3,4-tetrahydronaphthalen-5-yloxy] acetic acid], the IC50 turned out to be 1000 nM in test [1] and 320 nM at PGI2 receptor.

`O=C(O)COc1cccc2c1CCC(CCn1cc(C(c3ccccc3)c3ccccc3)cn1)C2` (centres unmarked) [4(f), [2-(2-(4-Diphenylmethylpyrazol-1-yl)ethyl)-1,2,3,4-tetrahydronaphthalen-5-yloxy] acetic acid]: the IC50 on PGI2 receptor amounted to 1400 nM.

On to `O=C(O)COc1cccc2c1CCC(CCOc1nc(-c3ccccc3)c(-c3ccccc3)n1-c1ccccc1)C2` (centres unmarked) [4(c), [2-(2-(1,4,5-Triphenylimidazol-2-yloxy)ethyl)-1,2,3,4-tetrahydronaphthalen-5-yloxy] acetic acid], for which the half-maximal inhibitory concentration (IC50) on PGI2 receptor stood at 8200 nM.

Regarding `O=C(O)COc1cccc2c1CCC(Cc1nc(C(c3ccccc3)c3ccccc3)no1)C2` (centres unmarked) [8(a), [2-(3-Diphenylmethyl-1,2,4-oxadiazol-5-yl)methyl-1,2,3,4-tetrahydronaphthalen-5-yloxy] acetic acid], the IC50 in test [1] was 1000 nM; on PGI2 receptor, 260 nM.

Regarding `O=C(O)COc1cccc2c1CCC(Cn1cc(C(c3ccccc3)c3ccccc3)cn1)=C2` [Example 22, [2-(4-(Diphenylmethyl)pyrazol-1-yl)methyl-3,4-dihydronaphthalen-5-yloxy] acetic acid], the IC50 in test [1] was determined as 93 nM; on PGI2 receptor it was 18 nM.

`O=C(O)COc1cccc2c1CCC(Cc1nc(C(c3ccccc3)c3ccccc3)co1)C2` (centres unmarked) [Example 10, [2-(4-Diphenylmethyloxazol-2-yl)methyl-1,2,3,4-tetrahydronaphthalen-5-yloxy] acetic acid]: the values for the IC50 (in test [1]; at PGI2 receptor) were 5100 nM and 1800 nM, respectively.

Compound `O=C(O)COc1cccc2c1CCCC2CCn1cc(C(c2ccccc2)c2ccccc2)cn1` (centres unmarked) [6(c), [1-(2-(4-Diphenylmethylpyrazol-1-yl)ethyl)-1,2,3,4-tetrahydronaphthalen-5-yloxy] acetic acid] displayed an IC50 on PGI2 receptor of 58 nM.

For `O=C(O)COc1cccc2c1CCC(Cn1cnc(-c3ccccc3)c1-c1ccccc1)C2` (centres unmarked) [2(a), [2-(4,5-Diphenylimidazol-1-yl)methyl-1,2,3,4-tetrahydronaphthalen-5-yloxy]acetic acid], the values for the IC50 (in test [1]; at PGI2 receptor) were 13000 nM and 2300 nM, respectively.

On to `O=C(O)COc1cccc2c1CCC(Cn1ccc(C(c3ccccc3)c3ccccc3)n1)C2` (centres unmarked) [2(h), [2-(3-Diphenylmethylpyrazol-1-yl)methyl-1,2,3,4-tetrahydronaphthalen-5-yloxy] acetic acid], for which the IC50 on PGI2 receptor was determined as 360 nM.

For `O=C(O)COc1cccc2c1CCC(Cn1cc(C(c3ccccc3)n3ccnc3)cn1)C2` (centres unmarked) [Example 24, [2-(4-((1-Imidazolyl)phenylmethyl)pyrazol-1-yl)methyl-1,2,3,4-tetrahydronaphthalen-5-yloxy] acetic acid], the IC50 at PGI2 receptor was determined as 8000 nM.

For `O=C(O)COc1cccc2c1CCC(Cc1c[nH]c(C(c3ccccc3)c3ccccc3)n1)C2` (centres unmarked) [Example 16, [2-(2-Diphenylmethylimidazol-4-yl)methyl-1,2,3,4-tetrahydronaphthalen-5-yloxy] acetic acid], the values for the IC50 (in test [1]; on PGI2 receptor) were 12000 nM and 6800 nM, respectively.

Consider `O=C(O)COc1cccc2c1CCC(Cn1cc(C(c3ccccc3)c3cccnc3)cn1)C2` (centres unmarked) [2(i), [2-(4-((3-pyridyl)phenylmethyl)pyrazol-1-yl)methyl-1,2,3,4-tetrahydronaphthalen-5-yloxy] acetic acid], for which the IC50 in test [1] was found to be 150 nM; on PGI2 receptor, 210 nM.

On to `O=C(O)COc1cccc2c1CCC(COc1nc(-c3ccccc3)c(-c3ccccc3)n1-c1ccccc1)C2` (centres unmarked) [2(d), [2-(1,4,5-Triphenylimidazol-2-yloxy)methyl-1,2,3,4-tetrahydronaphthalen-5-yloxy] acetic acid], for which the figures for the IC50 (in test [1]; at PGI2 receptor) were 20000 nM and 6800 nM, respectively.

As for `O=C(O)COc1cccc2c1CCC(Cn1cc(C(c3ccccc3)c3cccnc3)cn1)=C2` (centres unmarked) [22(a), [2-(4-((3-Pyridyl)phenylmethyl)pyrazol-1-yl)methyl-3,4-dihydronaphthalen-5-yloxy] acetic acid], on PGI2 receptor, the IC50 worked out at 160 nM.

In the case of `O=C(O)COc1cccc2c1CCC(Cn1c(-c3ccccc3)c(-c3ccccc3)n(-c3ccccc3)c1=O)C2` (centres unmarked) [2(e), [2-(3,4,5-Triphenyl-2-oxo-2,3-dihydroimidazol-1-yl)methyl-1,2,3,4-tetrahydronaphthalen-5-yloxy] acetic acid], the IC50 amounted to 15000 nM in test [1] and 2600 nM at PGI2 receptor.

`O=C(O)COc1cccc2c1CCC(CSc1nc(-c3ccccc3)c(-c3ccccc3)[nH]1)C2` (centres unmarked) [2(c), [2-(4,5-Diphenylimidazol-2-ylthio)methyl-1,2,3,4-tetrahydronaphthalen-5-yloxy] acetic acid]: the IC50 in test [1] was determined as 12000 nM; at PGI2 receptor, 3900 nM.

On to `CCc1oc(C(c2ccccc2)c2ccccc2)nc1CC1CCc2c(cccc2OCC(=O)O)C1` (centres unmarked) [Example 14, [2-(2-Diphenylmethyl-5-ethyloxazol-4-yl)methyl-1,2,3,4-tetrahydronaphthalen-5-yloxy] acetic acid], for which the IC50 in test [1] is 1600 nM; at PGI2 receptor, 940 nM.

In the case of `O=C(O)COc1cccc2c1CCC(CCSc1nc(-c3ccccc3)c(-c3ccccc3)[nH]1)C2` (centres unmarked) [4(b), [2-(2-(4,5-Diphenylimidazol-2-ylthio)ethyl)-1,2,3,4-tetrahydronaphthalen-5-yloxy] acetic acid], the results for the IC50 (in test [1]; at PGI2 receptor) were 11000 nM and 5000 nM, respectively.

One may read the IC50 as the concentration at which inhibition is half-maximal.
